Values of other authors, collected in patent publication US7175830B2, “Imaging of drug accumulation as a guide to antitumor therapy” (The United States of America as represented by the …, priority 1999, dated 2007).

Conditions: circulates in the body; higher than SN-38, the active form

- circulating concentration relative to that of its metabolite SN-38: about 100 fold
SMILES: CCc1c2c(nc3ccc(OC(=O)N4CCC(N5CCCCC5)CC4)cc13)-c1cc3c(c(=O)n1C2)COC(=O)[C@]3(O)CC [Irinotecan]
